PMC9161374 (Science Translational Medicine, 2022)
pEC50: −log10 of the molar value. Where “and” joins values, the source holds several entries; their conditions need not be identical. Equal values may be shown once. Read-outs that look alike come from different tables or passages of the source.

Legend:
[1] = system: SARS-CoV-2 replicon system (pBAC-SARS-CoV-2-Replicon-Luc); test: microbe, parasite or virus in culture; type: cell-based; conditions: Severe acute respiratory syndrome coronavirus 2, HEK-293T, 60 h
SARS-CoV-2 (B.1) = test: Anti-SARS-CoV-2 activity in Vero E6 cells (viral yield by qRT-PCR); type: cell-based
[2] = system: SARS-CoV-2 (Beta, B.1.351); test: microbe, parasite or virus in culture; type: cell-based; conditions: for pEC50: read-out: EC50 in Vero E6 cells, SARS-CoV-2 (Beta, B.1.351); for % Inhibition: beta
[3] = system: SARS-CoV-2 (Delta, B.1.617.2); test: microbe, parasite or virus in culture; type: cell-based; conditions: for % Inhibition: delta
[4] = system: SARS-CoV-2 (B.1) in Huh7 cells; test: Anti-SARS-CoV-2 activity in Huh7 cells (viral yield by qRT-PCR); type: cell-based; conditions: B.1, MOI 0.05, 48 h
[5] = CCK-8 cell viability assay; type: cell-based, African green monkey; conditions: African green monkey; Vero E6 cells, 48 h, CCK8
Summary of the method: (§1)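 Vero E6 cells, 20,000/well, exposed to compound at 0–200 μM (0, 0.01, 0.1, 1, 5, 10, 50, 75, 100, 200 μM) for 48 h; viability read by CCK-8 and expressed as percentage versus drug concentration, mean ± SD.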

Vero E6 cells = test: CCK-8 cell viability assay; type: cell-based, African green monkey; conditions: individual replicate values, Fig.S4
Summary of the method: as §1

[6] = Permeability and efflux ratio in Caco-2 cells; type: in vitro ADME; conditions: human
Excerpt: ATV019, and ATV020 in Caco-2 cells.
Compound Caco-2 AB/BA (Papp (10-6 cm/s)) a Efflux ratio

[7] = system: SARS-CoV-2 (Omicron, B.1.1.529); test: microbe, parasite or virus in culture
[8] = Severe acute respiratory syndrome coronavirus 2, Vero C1008, read-out: EC90 (Confidence 95%)

For `N#C[C@@]1(c2ccc3c(N)ncnn23)O[C@H](CO)[C@@H](O)[C@H]1O` [GS-441524, reference compound], the pEC50 ([1]; read-out: EC50 (Confidence 95%), replicon) was 6.02, the EC90 ([1]; read-out: EC90 (Confidence 95%), replicon) was 3.25 µM and the “% Inhibition” value (SARS-CoV-2 (B.1); 2 μM, replicates, sheet Fig.S3) was 71.478%. For the same compound, the “% Inhibition” value (SARS-CoV-2 (B.1); 5 μM, replicates, sheet Fig.S3) was 85.4877%, the “% Inhibition” value (SARS-CoV-2 (B.1); 10 μM, replicates, sheet Fig.S3) was 86.8803% and the “% Inhibition” value (SARS-CoV-2 (B.1); B.1, 1 uM, Vero E6, replicates, 1 µM) was 3.349%. For the same compound, the “% Inhibition” value (SARS-CoV-2 (B.1); B.1, 2 uM, Vero E6, replicates, 2 µM) was 80.3269%, the “% Inhibition” value (SARS-CoV-2 (B.1); B.1, 5 uM, Vero E6, replicates, 5 µM) was 96.5344% and the “% Inhibition” value (SARS-CoV-2 (B.1); B.1, 10 uM, Vero E6, replicates, 10 µM) was 98.7837%. For the same compound, the “% Inhibition” value (SARS-CoV-2 (B.1); B.1, 50 uM, Vero E6, replicates, 50 µM) was 98.8136%, the inhibition at 0.1 µM (SARS-CoV-2 (B.1); Severe acute respiratory syndrome coronavirus 2, Vero C1008, 0.1 μM, replicates, sheet Fig.S3) was 0% and the inhibition at 0.5 µM (SARS-CoV-2 (B.1); Severe acute respiratory syndrome coronavirus 2, Vero C1008, 0.5 μM, replicates, sheet Fig.S3) was 0%. The inhibition at 1 µM (SARS-CoV-2 (B.1); Severe acute respiratory syndrome coronavirus 2, Vero C1008, 1 μM, replicates, sheet Fig.S3) was 0%, the inhibition at 2 µM (SARS-CoV-2 (B.1); Severe acute respiratory syndrome coronavirus 2, Vero C1008, 2 μM, replicates, sheet Fig.S3) was 72.7% and the inhibition at 5 µM (SARS-CoV-2 (B.1); Severe acute respiratory syndrome coronavirus 2, Vero C1008, 5 μM, replicates, sheet Fig.S3) was 85.9%. For the same compound, the inhibition at 10 µM (SARS-CoV-2 (B.1); Severe acute respiratory syndrome coronavirus 2, Vero C1008, 10 μM, replicates, sheet Fig.S3) was 90.7%, the inhibition at 0.01 µM (SARS-CoV-2 (B.1); Severe acute respiratory syndrome coronavirus 2, Vero C1008, B.1, 0.01 uM, Vero E6, replicates) was 0% and the inhibition at 0.1 µM (SARS-CoV-2 (B.1); Severe acute respiratory syndrome coronavirus 2, Vero C1008, B.1, 0.1 uM, Vero E6, replicates) was 0%. For the same compound, the inhibition at 0.25 µM (SARS-CoV-2 (B.1); Severe acute respiratory syndrome coronavirus 2, Vero C1008, B.1, 0.25 uM, Vero E6, replicates) was 0%, the inhibition at 0.5 µM (SARS-CoV-2 (B.1); Severe acute respiratory syndrome coronavirus 2, Vero C1008, B.1, 0.5 uM, Vero E6, replicates) was 0% and the inhibition at 2 µM (SARS-CoV-2 (B.1); Severe acute respiratory syndrome coronavirus 2, Vero C1008, B.1, 2 uM, Vero E6, replicates) was 72.6%. The inhibition at 5 µM (SARS-CoV-2 (B.1); Severe acute respiratory syndrome coronavirus 2, Vero C1008, B.1, 5 uM, Vero E6, replicates) was 95.7%, the inhibition at 10 µM (SARS-CoV-2 (B.1); Severe acute respiratory syndrome coronavirus 2, Vero C1008, B.1, 10 uM, Vero E6, replicates) was 98.5% and the inhibition at 50 µM (SARS-CoV-2 (B.1); Severe acute respiratory syndrome coronavirus 2, Vero C1008, B.1, 50 uM, Vero E6, replicates) was 98.7%. For the same compound, the EC90 (SARS-CoV-2 (B.1); [8]) was 2.39 µM, the pEC50 (SARS-CoV-2 (B.1); Severe acute respiratory syndrome coronavirus 2, Vero C1008, MOI 0.05, 48 h) was 5.77 and the pEC50 ([2]; Severe acute respiratory syndrome coronavirus 2, Vero C1008, 48 h) was 5.87. It also gave an inhibition at 0.01 µM ([2]; Severe acute respiratory syndrome coronavirus 2, Vero C1008, beta, 0.01 uM, Vero E6, replicates) of 0%, an inhibition at 0.1 µM ([2]; Severe acute respiratory syndrome coronavirus 2, Vero C1008, beta, 0.1 uM, Vero E6, replicates) of 0% and an inhibition at 0.25 µM ([2]; Severe acute respiratory syndrome coronavirus 2, Vero C1008, beta, 0.25 uM, Vero E6, replicates) of 0%. It also gave an inhibition at 0.5 µM ([2]; Severe acute respiratory syndrome coronavirus 2, Vero C1008, beta, 0.5 uM, Vero E6, replicates) of 0%, an inhibition at 1 µM ([2]; Severe acute respiratory syndrome coronavirus 2, Vero C1008, beta, 1 uM, Vero E6, replicates) of 21.8% and an inhibition at 2 µM ([2]; Severe acute respiratory syndrome coronavirus 2, Vero C1008, beta, 2 uM, Vero E6, replicates) of 85.3%. It also gave an inhibition at 5 µM ([2]; Severe acute respiratory syndrome coronavirus 2, Vero C1008, beta, 5 uM, Vero E6, replicates) of 99.5%, an inhibition at 10 µM ([2]; Severe acute respiratory syndrome coronavirus 2, Vero C1008, beta, 10 uM, Vero E6, replicates) of 99.9% and an inhibition at 50 µM ([2]; Severe acute respiratory syndrome coronavirus 2, Vero C1008, beta, 50 uM, Vero E6, replicates) of 99.9%. For the same compound, the EC90 ([2]; Severe acute respiratory syndrome coronavirus 2, Vero C1008, read-out: EC90 (Confidence 95%), Vero-E6, Beta B.1.351) was 2.32 µM, the “% Inhibition” value ([2]; 1 uM, Vero E6, replicates) was 23.8494% and the “% Inhibition” value ([2]; 2 uM, Vero E6, replicates) was 80.342%. For the same compound, the “% Inhibition” value ([2]; 5 uM, Vero E6, replicates) was 99.4744%, the “% Inhibition” value ([2]; 10 uM, Vero E6, replicates) was 99.9464% and the “% Inhibition” value ([2]; 50 uM, Vero E6, replicates) was 99.9252%. The pEC50 [2] was 5.87, the pEC50 ([3]; Severe acute respiratory syndrome coronavirus 2, Vero C1008, 48 h, read-out: EC50 in Vero E6 cells, SARS-CoV-2 (Delta, B.1.617.2)) was 6.02 and the inhibition at 0.01 µM ([3]; Severe acute respiratory syndrome coronavirus 2, Vero C1008, delta, 0.01 uM, Vero E6, replicates) was 0%. The inhibition at 0.1 µM ([3]; Severe acute respiratory syndrome coronavirus 2, Vero C1008, delta, 0.1 uM, Vero E6, replicates) was 0%, the inhibition at 0.25 µM ([3]; Severe acute respiratory syndrome coronavirus 2, Vero C1008, delta, 0.25 uM, Vero E6, replicates) was 0% and the inhibition at 0.5 µM ([3]; Severe acute respiratory syndrome coronavirus 2, Vero C1008, delta, 0.5 uM, Vero E6, replicates) was 0%. For the same compound, the inhibition at 2 µM ([3]; Severe acute respiratory syndrome coronavirus 2, Vero C1008, delta, 2 uM, Vero E6, replicates) was 94.9%, the inhibition at 5 µM ([3]; Severe acute respiratory syndrome coronavirus 2, Vero C1008, delta, 5 uM, Vero E6, replicates) was 97% and the inhibition at 10 µM ([3]; Severe acute respiratory syndrome coronavirus 2, Vero C1008, delta, 10 uM, Vero E6, replicates) was 98.7%. For the same compound, the inhibition at 50 µM ([3]; Severe acute respiratory syndrome coronavirus 2, Vero C1008, delta, 50 uM, Vero E6, replicates) was 99.8%, the EC90 ([3]; Severe acute respiratory syndrome coronavirus 2, Vero C1008, read-out: EC90 (Confidence 95%), Vero-E6, Delta B.1.617.2) was 1.35 µM and the “% Inhibition” value ([3]; 1 uM, Vero E6, replicates) was 66.6762% and 46.4634%. The “% Inhibition” value ([3]; 2 uM, Vero E6, replicates) was 93.4361%, the “% Inhibition” value ([3]; 5 uM, Vero E6, replicates) was 94.7905% and the “% Inhibition” value ([3]; 10 uM, Vero E6, replicates) was 95.0345%. The “% Inhibition” value ([3]; 50 uM, Vero E6, replicates) was 98.9856%, the pEC50 ([4]; Severe acute respiratory syndrome coronavirus 2, Huh-7, read-out: EC50 (Confidence 95%) in Huh7 cells) was 5.76 and the EC90 ([4]; Severe acute respiratory syndrome coronavirus 2, Huh-7, read-out: EC90 (Confidence 95%) in Huh7 cells) was 2.08 µM. For the same compound, the CC50 at 48 h [5] was > 50 µM, the “cell viability (% of control)” value (Vero E6 cells; 0.1 μM compound, 0.1 µM) was 105.342 % of control and the “cell viability (% of control)” value (Vero E6 cells; 1 μM compound, 1 µM) was 107.061 % of control and 113.737 % of control. For the same compound, the “cell viability (% of control)” value (Vero E6 cells; 2 μM compound, 2 µM) was 117.342 % of control and 112.354 % of control and 107.242 % of control, the “cell viability (% of control)” value (Vero E6 cells; 5 μM compound, 5 µM) was 121.028 % of control and 116.731 % of control and the “cell viability (% of control)” value (Vero E6 cells; 10 μM compound, 10 µM) was 98.5418 % of control and 94.9348 % of control and 94.7813 % of control. The “cell viability (% of control)” value (Vero E6 cells; 20 μM compound, 20 µM) was 98.3543 % of control and 95.3243 % of control and 95.3532 % of control, the “cell viability (% of control)” value (Vero E6 cells; 50 μM compound, 50 µM) was 93.3231 % of control and 94.7045 % of control and 94.3208 % of control and the Papp A→B ([6]; AB) was 1.22 ×10⁻⁶ cm/s. For the same compound, the Papp B→A ([6]; BA) was 1.2 ×10⁻⁶ cm/s, the pEC50 ([7]; Severe acute respiratory syndrome coronavirus 2, Vero C1008, 48 h, read-out: EC50 in Vero E6 cells, SARS-CoV-2 (Omicron, B.1.1.529)) was 6.72 and the inhibition at 0.069 µM ([7]; Severe acute respiratory syndrome coronavirus 2, Vero C1008, Omicon, 0.069 uM, Vero E6, replicates) was 0%. It also gave an inhibition at 0.625 µM ([7]; Severe acute respiratory syndrome coronavirus 2, Vero C1008, Omicon, 0.625 uM, Vero E6, replicates) of 96.5%, an inhibition at 2.5 µM ([7]; Severe acute respiratory syndrome coronavirus 2, Vero C1008, Omicon, 2.5 uM, Vero E6, replicates) of 100% and an inhibition at 5 µM ([7]; Severe acute respiratory syndrome coronavirus 2, Vero C1008, Omicon, 5 uM, Vero E6, replicates) of 100%. It also gave an inhibition at 10 µM ([7]; Severe acute respiratory syndrome coronavirus 2, Vero C1008, Omicon, 10 uM, Vero E6, replicates) of 100% and an EC90 [7, 8] of 0.363 µM.
